US20230026696A1, “TRPV4 RECEPTOR LIGANDS” (UNIVERSITY OF UTAH RESEARCH FOUNDATION, priority 2019, published 2023)

What was measured:
[1] = target: T1, human TRPV4 (Homo sapiens, UniProt Q9HBA0); test: Fluorometric cell-based Ca2+ flux assay, HEK-293 cells stably overexpressing human TRPV4; conditions: for IC50: HEK-293 stably overexpressing human TRPV4, agonist GSK1016790A 30 nM
T1 construct: expressed in transfected cells
Method in brief: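 HEK-293 cells stably overexpressing human TRPV4, Fluo 4-loaded, pre-incubated 30 min at 37° C with compound, then stimulated with 30 nM GSK1016790A (final). Max ΔF/s over 1 min, media-corrected, expressed relative to no-antagonist control; IC50 from ≥8 concentrations, ≥3 replicates.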

[2] = target: T2, human TRPA1 (Homo sapiens, UniProt O75762); test: Selectivity Ca2+ flux assay, TRPA1 stably over-expressed in HEK-293 cells; format: cell-based; conditions: agonist 2,4-ditert butylphenol (50 μM)
T2 construct: expressed in transfected cells
T2 sequence (O75762 whole entry): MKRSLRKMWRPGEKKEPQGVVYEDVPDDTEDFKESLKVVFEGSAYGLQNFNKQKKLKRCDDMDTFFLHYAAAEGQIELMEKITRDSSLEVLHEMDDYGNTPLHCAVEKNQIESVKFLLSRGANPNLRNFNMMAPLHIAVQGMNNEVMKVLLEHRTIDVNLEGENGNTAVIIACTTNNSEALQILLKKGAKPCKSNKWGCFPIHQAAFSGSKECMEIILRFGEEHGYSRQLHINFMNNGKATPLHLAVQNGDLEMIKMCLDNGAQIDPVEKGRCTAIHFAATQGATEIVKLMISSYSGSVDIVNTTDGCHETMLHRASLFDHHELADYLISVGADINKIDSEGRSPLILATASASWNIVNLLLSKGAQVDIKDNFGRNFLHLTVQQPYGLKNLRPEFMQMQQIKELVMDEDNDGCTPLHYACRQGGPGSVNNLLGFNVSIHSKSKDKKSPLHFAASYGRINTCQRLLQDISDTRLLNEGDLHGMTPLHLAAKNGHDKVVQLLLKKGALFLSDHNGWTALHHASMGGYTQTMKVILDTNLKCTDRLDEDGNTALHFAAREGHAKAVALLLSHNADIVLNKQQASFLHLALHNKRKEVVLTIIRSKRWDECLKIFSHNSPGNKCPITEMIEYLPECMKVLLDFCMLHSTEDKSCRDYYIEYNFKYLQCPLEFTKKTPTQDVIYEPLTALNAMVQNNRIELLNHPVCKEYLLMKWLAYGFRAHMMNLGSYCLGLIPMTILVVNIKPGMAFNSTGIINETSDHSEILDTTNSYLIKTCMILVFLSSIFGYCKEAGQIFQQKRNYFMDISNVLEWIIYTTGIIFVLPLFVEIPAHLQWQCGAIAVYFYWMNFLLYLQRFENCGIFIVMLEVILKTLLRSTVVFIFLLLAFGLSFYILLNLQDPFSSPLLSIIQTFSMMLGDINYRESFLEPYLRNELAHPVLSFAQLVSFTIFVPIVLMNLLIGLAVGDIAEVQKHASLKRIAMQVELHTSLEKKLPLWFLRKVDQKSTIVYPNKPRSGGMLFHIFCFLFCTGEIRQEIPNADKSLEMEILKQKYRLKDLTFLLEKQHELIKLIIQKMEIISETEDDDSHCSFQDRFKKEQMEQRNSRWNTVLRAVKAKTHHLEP
Experimental: To determine selectivity of the various test compounds for TRPV4, select compounds with activity in the TRPV4 fluorometric cell-based Ca^2+ flux assays were also tested for inhibition of human TRPA1 stably over-expressed in HEK-293 cells, TRPM8 stably over-expressed in HEK-293 cells, TRPV3 stably over-expressed in HEK-293 cells, and TRPV1 stably overexpressed in human lung epithelial (BEAS-2B) cells. The assays were conducted substantially as described above for HEK-293 cells that stably overexpress TRPV4, although for TRPV1, the BEAS-2B cells were maintained in LHC-9 media containing Geneticin (300 μg/mL) and were loaded with Fluo-4AM at room temperature. The agonist for TRPA1 was 2,4-ditert butylphenol (50 μM), for TRPM8 was icilin (50 μM), for TRPV3 was carvacrol (300 μM), and for TRPV1 was nonivamide (5 μM). All other aspects of the assay described above were the same.

[3] = system: intraocular pressure (IOP); test: In vivo tonometric IOP assay in microbead mouse model of ocular hypertension; conditions: for IOP after single topical application: 1 μM and 10 μM, comparable to 0.5% timolol; for IOP after topical administration / protection of RGCs: mouse model of ocular hypertension, compounds 1 μM and 10 μM, timolol 0.5%; for IOP after topical administration: FIG. 1; for protection of RGCs: topical
[4] = system: intraocular pressure (IOP); test: In vivo IOP assay in dog model of ocular hypertension (ADAMTS10 Beagles)
Experimental: Homozygous Beagels with autosomal recessive missense mutation in the ADAMTS10 gene develop significant IOP elevations due to decreased outflow facility for aqueous humor, resulting in open angle glaucoma that manifests as optic nerve head cupping and optic neuropathy.
8 drops of Compound 52 (200 mM in hydroxypropyl methylcellulose solution, stock dissolved in DMSO) were administered to the Beagels at 7 AM for 1.5 hours. Control eyes received the vehicle (hydroxypropyl methylcellulose eyedrop with proper dilution of DMSO). IOP was measured by tonometry at 9:00 AM (6 readings per event, averaged) in dogs under topical anesthesia (N=5 OAG, N=5 non-symptomatic dogs). General ophthalmic examinations were performed by slit lamp biomicroscopy (Kowa SL-17 Portable Slit Lamp; Kowa Company, Ltd.) and indirect ophthalmoscopy (Keeler All Pupil II headset; Keeler Instruments; Pan Retinal 2.2D condensing lens; Volk Optical) to detect potential treatment-related adverse effects.

T1 sequence (Q9HBA0 whole entry): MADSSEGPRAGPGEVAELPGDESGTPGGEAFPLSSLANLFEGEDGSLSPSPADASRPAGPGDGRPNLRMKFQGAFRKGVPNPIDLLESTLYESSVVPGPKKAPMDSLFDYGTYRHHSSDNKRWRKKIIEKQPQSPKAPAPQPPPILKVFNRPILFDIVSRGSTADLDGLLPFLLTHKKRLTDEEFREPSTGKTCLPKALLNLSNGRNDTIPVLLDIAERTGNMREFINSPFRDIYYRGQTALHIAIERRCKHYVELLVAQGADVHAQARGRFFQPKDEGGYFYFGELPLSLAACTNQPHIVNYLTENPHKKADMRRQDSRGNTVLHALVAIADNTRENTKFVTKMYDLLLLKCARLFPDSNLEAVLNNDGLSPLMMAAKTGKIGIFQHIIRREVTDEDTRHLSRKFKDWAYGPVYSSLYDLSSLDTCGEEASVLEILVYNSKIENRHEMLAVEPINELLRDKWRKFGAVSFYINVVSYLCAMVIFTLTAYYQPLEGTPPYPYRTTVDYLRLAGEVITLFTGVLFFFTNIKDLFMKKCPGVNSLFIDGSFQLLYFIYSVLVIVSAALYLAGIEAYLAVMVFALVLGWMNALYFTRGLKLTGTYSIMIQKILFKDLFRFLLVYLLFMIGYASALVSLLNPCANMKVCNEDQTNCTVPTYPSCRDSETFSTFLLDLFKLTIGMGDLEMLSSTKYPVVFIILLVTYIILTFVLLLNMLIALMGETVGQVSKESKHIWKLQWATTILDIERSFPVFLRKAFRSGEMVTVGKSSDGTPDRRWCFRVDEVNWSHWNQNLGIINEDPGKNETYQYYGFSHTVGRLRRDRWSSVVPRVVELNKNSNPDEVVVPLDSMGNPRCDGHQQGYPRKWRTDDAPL

Structure (SMILES)	IC50 [1]	selectivity for TRPV4 versus TRPA1, TRPM8, TRPV3 and TRPV1 ([1]; comparison of IC50 values)	IC50 [2]	IOP after single topical application [3]	IOP after topical administration [3]	protection of RGCs [3]	average IOP after topical application ([4]; ocular hypertensive dogs, mean baseline IOP 45.5 mm Hg, 8 drops, 200 mM in hydroxypropyl methylcellulose)	tolerability in dogs ([4]; topical, N=10)	signs of ocular discomfort or conjunctival hyperemia ([4]; topical, N=10, slit lamp and ophthalmoscopy)
N#Cc1ccc(OCC2(CO)CN(S(=O)(=O)c3ccc(Cl)cc3Cl)C2)cc1F [Compound 11, 4-((1-((2,4-Dichlorophenyl)sulfonyl)-3-(hydroxymethyl)azetidin-3-yl)methoxy)-2-fluorobenzonitrile]	0.052 to 0.061 µM	substantially more selective for TRPV4	52 µM	effectively lower IOP	lowered the IOP	protected RGCs			
Cl.N#Cc1ccc(OCC2(N)CN(S(=O)(=O)c3ccc(Cl)cc3Cl)C2)cc1F [Compound 52, 4-((3-Amino-1-((2,4-dichlorophenyl)sulfonyl)azetidin-3-yl)methoxy)-2-fluorobenzonitrile hydrochloride salt]	0.024 to 0.066 µM		89.6 µM	effectively lower IOP	lowered the IOP	protected RGCs	36.6 mm Hg	well-tolerated	no observable signs of ocular discomfort or conjunctival hyperemia
